# Measured values reported in patent US8420607B2 (priority 2006, dated 2013).
# Experiments:
# [1] = system: IgG antibodies of rabbit anti-live spore, anti-irradiated spore and anti-polysaccharide-KLH antisera; format: binding
# [2] = system: rabbit anti-live spore B. anthracis Sterne 34F2 antiserum; format: binding
# [3] = system: rabbit anti-spore serum (live spore antiserum); format: binding
# [4] = system: anti-anthrose IgG in rhesus macaque sera; format: binding, rhesus macaques
# [5] = system: rabbit anti-B. anthracis live spore antiserum IgG; format: binding
# [6] = system: rabbit anti-irradiated spore B. anthracis Sterne 34F2 antiserum; format: binding
compound,measurement,setting,value
"CC1OC(OC2C(O)C(C)OC(OCCCN)C2O)C(O)C(OC2OC(C)C(NC(=O)CC(C)(C)O)C(O)C2O)C1O [trisaccharide 2, 3-aminopropyl O-(4-(3-hydroxy-3-methylbutamido)-4,6-dideoxy-β-D-glucopyranosyl)-(1→3)-O-(α-L-rhamnopyranosyl)-(1→3)-α-L-rhamnopyranoside]",Relative recognition by antibodies elicited by the live spore vaccine,[1],recognized trisaccharide 2 much better than 1
"COC1C(OC2C(O)C(C)OC(OC3C(O)C(C)OC(OCCCN)C3O)C2O)OC(C)C(NC(=O)CC(C)C)C1O [trisaccharide 3, 3-aminopropyl O-(4-(3-methylbutamido)-2-O-methyl-4,6-dideoxy-β-D-glucopyranosyl)-(1-→3)-O-(α-L-rhamnopyranosyl)-(1→3)-α-L-rhamnopyranoside]",Reduction in reporter signal (OD) compared to the control,[2],85%
maltoheptaose [reference compound],Inhibition of antiserum binding to B. anthracis HF-PS-BSA,[3],no significant inhibition
"CO[C@H]1[C@H](O[C@@H]2[C@@H](O)[C@H](C)O[C@@H](O[C@@H]3[C@@H](O)[C@H](C)O[C@@H](OCCCN)[C@@H]3O)[C@@H]2O)O[C@H](C)[C@@H](NC(=O)CC(C)(C)O)[C@@H]1O [trisaccharide 1, 3-aminopropyl O-(4-(3-hydroxy-3-methylbutamido)-2-O-methyl-4,6-dideoxy-β-D-glucopyranosyl)-(1→3)-O-(α-L-rhamnopyranosyl)-(1→3)-α-L-rhamnopyranoside]",Inhibition of anti-anthrose response measured by ELISA,[4],specifically inhibited
same,Inhibition of serum binding to KLH-A-3,[4],inhibited binding
same,Inhibition of serum binding to KLH-conjugated trisaccharide,[4],Binding could be specifically inhibited
same,Inhibition of antiserum binding to B. anthracis Pasteur HF-PS-BSA,[5],no inhibition was observed
same,Inhibition of interaction of antisera from rabbits immunized with irradiated spores,[6],could also be inhibited in a dose response manner
same,Drop in OD by competing free trisaccharide,[2],significant drop in OD
"COC1C(OC2C(O)C(C)OC(OC3C(O)C(C)OC(OCCCN)C3O)C2O)OC(C)C(NC(C)=O)C1O [analogue 4, 3-aminopropyl O-(4-acetamido-2-O-methyl-4,6-dideoxy-β-D-glucopyranosyl)-(1→3)-O-(α-L-rhamnopyranosyl)-(1→3)-β-L-rhamnopyranoside]",Reduction in reporter signal (OD) compared to the control,[2],17%
